In a melting point compilation (Tetko et al.; mined from patent text by program, amines drawn as free bases though some values may be those of a salt) one finds melting point data, which are given here for 66 compounds.

SMILES strings stand for the structures.

By melting point is commonly meant the temperature, or range, at which the solid turns liquid. On to `CCCCCCCCCCCCCCCCCCOCC(COC1CCCCO1)NC(C)=O` (stereo unspecified), for which the melting point was 52 to 55 °C.

Compound `CCN(CC)C(=O)C=Cc1ccc(Cl)c(Cl)c1` yielded a melting point of 60.7 °C.

`C[C@@H](NC(=O)[C@@H](NC(=O)OCc1ccccc1)C(Cc1ccccc1)C(=O)O)C(=O)O` (stereo partly specified): the melting point is 158 to 159 °C.

Compound `Cc1nc(Cl)c(C)c(-c2c(C)c(N)c(C)c3nsnc23)n1` showed a melting point of 105 to 106 °C.

Consider `Cc1nc(NC(=O)c2ccncc2)sc1C(=O)NCc1ccccc1`, for which the melting point lay within 171 to 172 °C.

As for `NS(=O)(=O)c1cccc(C2(O)CCC2)c1`, the melting point was 155 to 157 °C.

Compound `C=CCc1cc(C(=O)c2ccnn2C)c(Cl)c(Cl)c1OCC(=O)O` came in with a melting point of 111 to 113 °C.

Take `COc1ccc(C(=O)O)nc1C`: the melting point stood at 183 °C.

Take `Cc1ccccc1COCn1cc(Cl)cnc1=O`: the melting point was determined as 88 °C.

`COC1(C)CCc2cc(O)c(C(C)(C)C)cc2O1` (stereo unspecified) registered a melting point of 115 to 117 °C.

`CC(C)CCn1cc(C(=O)c2ccccc2)c(=O)c2cn(C)nc21` gave a melting point of 231 to 233 °C.

The compound `O=C1Nc2ccccc2C(c2ccccc2F)CC1Br` (stereo unspecified) yielded a melting point of 208 to 214 °C.

`O=Cc1c(OCCCCCCC(=O)N(Cc2ccccc2)Cc2ccccc2)cc(Cl)cc1[N+](=O)[O-]` showed a melting point of 76 to 77 °C.

In turn, `Cc1nc(-c2ccc(C(F)(F)F)cc2)oc1COc1ccc(OCC(=O)O)cc1` gave a melting point of 136 to 138 °C.

As for `C=CCOc1ccc(C(=O)Oc2ccc(C(=O)O)cc2)cc1C12CC3CC(CC(C3)C1)C2`, the melting point lay within 260 to 261 °C.

Regarding `COc1ccccc1-c1n[nH]c2c(NCCO)cc(C)nc12`, the melting point was in the range of 193 to 194 °C.

Consider `Nc1noc(-c2ccc(C(F)(F)F)cc2)c1Cl`, for which the melting point was 115 to 118 °C.

`CCOC(=O)C(=O)C1C(=O)c2cccc3c2C1CCC3` (stereo unspecified): the melting point lay within 92 to 94 °C.

The compound `COc1ccc(C(=O)Nc2cccnc2)cc1N` returned a melting point of 193 to 196 °C.

`CCc1cc(-c2cccc(N)n2)c(OC)cc1OCCN(C)C` registered a melting point of 109 °C.

As to `CC(=O)NCC(CCl)OC(C)=O` (stereo unspecified), the melting point lay in the range of 68 to 69.5 °C.

Take `N#CC1=C(C2CCCCC2=O)Nc2n[nH]cc2C1c1cccc(C#N)c1Br` (stereo unspecified): the melting point was found to be 273 °C.

In turn, `O=CN(O)C(CS(=O)(=O)c1ccc(Oc2ccc(OC(F)(F)F)cc2)cc1)CS(=O)(=O)N1CCC2(CC1)OCCO2` (stereo unspecified) yielded a melting point of 178 to 179 °C.

`COC(=O)c1ccc(OCC2CN(c3ccc(NC(C)=O)cc3)C(=O)O2)cc1` (stereo unspecified) showed a melting point of 188 to 190 °C.

As for `COC(=O)C(=O)Nc1ccc(C(CC2CCCC2)C(=O)Nc2nccs2)cc1` (stereo unspecified), the melting point was in the range of 95 to 98 °C.

`CCOC(=O)c1sc(OCC)nc1-c1ccccc1` registered a melting point of 32 to 34 °C.

With `CCOC(=O)CCC1CCN(c2ccc(C#N)c3ccccc23)CC1`, the melting point fell in the range of 106 to 107 °C.

Turning to `CCC(Cl)c1nc2cccnc2[nH]1` (stereo unspecified), the melting point was 137 °C.

Turning to `CC(=O)NCc1ccc2ccn(C3CCN(CCc4ccccc4F)CC3)c2c1`, the melting point is 101 to 102 °C.

For `CCCOC(C)c1ccc(-c2ccc(OCc3ccccc3)cc2)cc1` (single isomer, unassigned; (+)), the melting point is 106 to 108 °C.

The compound `CCCCCCC(C(=O)N[C@@H](CC(=O)O)C(=O)O)n1cnc2cc(-c3ccccc3-c3nn[nH]n3)ccc21` (stereo partly specified) returned a melting point of 190 to 195 °C.

Compound `CC(C)OCCNS(=O)(=O)NC(=O)OCCCc1ccc(OCc2ccco2)cc1Oc1ncc(C(F)(F)F)cc1Cl` yielded a melting point of 118 to 120 °C.

Consider `COC(=O)Nc1nc2cc(S(=O)CC3CCCCC3)ccc2[nH]1` (stereo unspecified), for which the melting point was 272 to 274 °C.

`CCC1=Nc2nc(C3CCCC3)[nH]c2C2=N[C@H](Cc3ccccc3)CN12` yielded a melting point of 187 to 189 °C.

The compound `CCc1nc2c(n1Cc1ccc(OC)cc1)C(=O)N(C)CN2c1ccc(Cl)cc1Cl` yielded a melting point of 116 to 118 °C.

The compound `CCCOc1ccccc1-c1nc2ncccc2c(=O)[nH]1` came in with a melting point of 110 to 111 °C.

On to `CCCCCC(CC(=O)Nc1cc(CCC(N)=O)ccc1C(C)(C)C)c1ccc(OC)cc1OC` (stereo unspecified), for which the melting point lay in the range of 113 to 114 °C.

`c1cnc(-c2n[nH]c(-c3cnccn3)n2)cn1` returned a melting point of 269 to 270 °C.

`CCCCc1ncc(/C=C2\C(=O)NC(=O)N2Cc2cccs2)n1Cc1ccc(C(=O)O)cc1`: the melting point is 297 to 299 °C.

On to `Cc1cc([N+](=O)[O-])ccc1NC1CC1`, for which the melting point was 35 to 37 °C.

Regarding `COc1ccc2[nH]c(C=Cc3ccccc3Cl)cc2c1`, the melting point lay in the range of 135 to 137 °C.

The compound `CC(C)(C)c1cc(C(=O)Oc2ccc(Cl)c(N)c2)cc(C(C)(C)C)c1O` showed a melting point of 64 to 66 °C.

Compound `CCCN(CCCCc1c[nH]c2ccc(F)cc12)C1COc2c(C(N)=O)ccc(F)c2C1` (stereo unspecified) returned a melting point of 116 °C.

`CC(Oc1ccc(OC(C)C(=O)O)cc1)C(=O)O` (stereo unspecified) displayed a melting point of 235 to 240 °C.

In turn, `COc1ccc(C(Cc2ccncc2)c2ccc(C(N)=O)cc2)cc1OC1CCCC1` (stereo unspecified) had a melting point of 180 to 182 °C.

In the case of `O=C(O)c1ccccc1S(=O)(=O)c1cc(Cl)ccc1C(=O)O`, the melting point lay in the range of 276 to 277 °C.

With `CC(=O)Oc1ccccc1N1CCN(CCCNC(=O)c2cccc3c(=O)c(C)c(-c4ccccc4)oc23)CC1`, the melting point lay within 120 to 123 °C.

`CC(=O)Cc1c(C)nc2ccccc2c1N` gave a melting point of 130 to 133 °C.

`COC(=O)C(C)c1cccc2c(=O)c3ccccc3ccc12` (stereo unspecified) yielded a melting point of 37 to 39 °C.

`O=c1c2c(Cc3cccc(C(F)(F)F)c3)n[nH]c2c2cccnc2n1-c1ccccc1` showed a melting point of 303 to 305 °C.

As to `CSc1nn2c(N3CCN(C)CC3)ccnc2c1S(=O)(=O)c1ccccc1`, the melting point fell in the range of 107 to 109 °C.

For `COC(=O)C1=C(C)NC(C)=C(C(=O)OCCN)C1c1cccc2c(=O)c(C)c(-c3ccccc3)oc12` (stereo unspecified), the melting point lay in the range of 188 to 192 °C.

`O=C1CCC(O)=C1Cc1ccc2ccccc2c1`: the melting point is 230 to 231 °C.

`COc1ccc(S/C(=C/C(=O)NO)CCCCc2ccccc2)cc1OC` displayed a melting point of 148 to 150 °C.

Take `Cc1cc(C)c2ccc(N)nc2n1`: the melting point lay within 215 to 220 °C.

For the compound `NC(=O)C1(CCC(=O)O)c2ccccc2-c2ccccc21`, the melting point lay in the range of 191 to 192 °C.

For `CCCn1nc2c(N)nc3ccccc3c2c1NCc1ccccc1`, the melting point was 160 to 161 °C.

As to `Oc1cccc(-c2ccc(OC[C@H](O)CCc3cccnc3)cc2)c1`, the melting point was 169 °C.

Turning to `CC(=O)N1N=C(c2ccc([N+](=O)[O-])c(C)c2)c2cc3c(cc2CC1C)OCO3` (stereo unspecified), the melting point is 123 to 127 °C.

`N[C@@H](C/C(=C\C1CC1)C(=O)O)C(=O)O` registered a melting point of 204 °C.

In the case of `COC(=O)Nc1nc2cc(F)c(OC(C)c3c(Cl)cccc3Cl)cc2[nH]1` (stereo unspecified), the melting point lay within 240 to 245 °C.

`Nc1sc2c(c1C(=O)c1cccc(C(F)(F)F)c1)CCN(CCc1ccccc1)C2` returned a melting point of 137 to 138 °C.

For `CCNC1CC=C(c2c[nH]c3cc(NC(=N)c4cccs4)ccc23)CC1` (stereo unspecified), the melting point fell in the range of 95 to 97 °C.

`CCC(O)c1c(C)c(NC(=O)CC(C)(C)C)c(C)c2c1OCC2c1ccc(C(C)C)cc1` (stereo unspecified) registered a melting point of 165 to 167 °C.

`COc1ccc2cc([C@H](C)C(=O)OCC(=O)O)ccc2c1` came in with a melting point of 122 to 123 °C.

`C#Cc1ccc(C2CCC(C3CCC(CCC)CC3)CC2)cc1` (stereo unspecified) yielded a melting point of 71 °C.
